Reference: patent US20130267544A1, “Use of LP-PLA2 Inhibitors in the Treatment and Prevention of Eye Diseases” (priority 2010, published 2013)
Read-outs that look alike come from different tables or passages of the source.

Tests used:
Lp-PLA2 = Lp-PLA2 (Rattus norvegicus, UniProt A6JJ35); details: hyperglycemic BN rats, 10 mg/kg i.p. QD
Experimental: (§1) Brown Norway (BN) rats, 6 weeks of age and weighing 180-200 g, were used in this study; the rats had free access to food and water and were maintained in cages in an environmentally controlled room with a 12 hour light-dark cycle. Diabetes was induced by following dosing of animals with streptozotocin (65 mg/kg/day dosed i.p. for each of the first 3 days of the protocol) in 10 mM sodium citrate-buffer pH 4.6. […] Animals which maintained an elevated blood glucose level of over 9 mM were deemed diabetic.

[1] = system: STZ-induced diabetic Brown Norway rats (blood-retinal barrier); details: BN rats, 2 week study, 10 mg/kg i.p. QD; not statistically robust
Experimental: as §1

[2] = system: STZ-induced diabetic SD rats
Experimental: as §1, with “Male SD” for “Brown Norway (BN)”, “(50” for “(65”
The retinal images were scanned by a commercially available Fourier-domain OCT (RTVue-100; version 2.1; Optovue, Inc., California, USA). Super-luminescent diode light source with a central wavelength of 840 nm and a full bandwidth of 50 nm was adapted to the OCT. The retinal thickness was accessed by the automatic software of RTVue scanner with manual adjusting. The retinal thickness was defined from layer of retinal pigment eitheluim (RPE) to retinal ganglion cell layer (GCL).
Two separate studies were conducted. Retinal images were taken on experimental day 4, 10, 13, 17, 22, 28 and 31 for the second study and day 0, 4, 7, 10, 14 and 18 for the first study. Animals were anesthetized by inhalation of 5% isoflourane and pupils were diluted with 1% tropicamide and 1% phenylephrine. Prior to OCT analysis animals were fixed on a support frame and the eye to be imaged positioned to align with the center of the scan beam perpendicular to the fundus. […] After imaging, the animals were recovered and returned to cages. Retinal thickness from six time points of OCT measurement were analyzed by repeated measures analysis of variance (ANOVA) using Prism software. […] All data were expressed as mean value±SEM.

[3] = system: STZ-induced diabetic Brown Norway rats (blood-retinal barrier); details: hyperglycaemic BN rats
Experimental: as §1
Eyes were enucleated, hemisected along the ora serrata, and the vitreous humor removed. Eyecups were immersion fixed in 4% (w/v) paraformaldehyde for 30 min, washed in PBS, and the retinas detached. Fixed retinas were cryoprotected, embedded in Tissue-Tek OCT compound snap frozen in liquid nitrogen-cooled isopentane, and 12-μm cryosections prepared. Sections was immunostained with antibodies specific for rat immunoglobulin G (IgG) in order to locate any nonvascular IgG and isolectin B4 to determine the location of retinal blood vessels in the retinal sections and viewed on a confocal microscope. Fluorescence was visualized by using a Nikon TE-2000 C1 confocal system (Nikon Ltd, Kingston upon Thames, UK). In some cases retinal blood vessels were highlighted using propridium iodide staining

Chain of Lp-PLA2 (A6JJ35 22-440): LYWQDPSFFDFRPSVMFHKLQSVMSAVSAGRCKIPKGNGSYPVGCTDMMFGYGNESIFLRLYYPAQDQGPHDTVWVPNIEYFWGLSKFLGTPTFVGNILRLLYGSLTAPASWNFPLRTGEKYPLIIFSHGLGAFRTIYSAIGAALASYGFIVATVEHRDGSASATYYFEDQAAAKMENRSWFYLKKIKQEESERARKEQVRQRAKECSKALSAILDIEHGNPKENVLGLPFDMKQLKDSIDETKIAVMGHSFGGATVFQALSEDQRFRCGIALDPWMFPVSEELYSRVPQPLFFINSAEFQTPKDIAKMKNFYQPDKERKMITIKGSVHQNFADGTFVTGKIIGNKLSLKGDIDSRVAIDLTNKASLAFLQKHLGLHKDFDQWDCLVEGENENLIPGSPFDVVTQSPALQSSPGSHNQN

CN(C)CCN(Cc1ccc(-c2ccc(C(F)(F)F)cc2)cc1)C(=O)Cn1cc(Cc2cnn(C)c2)c(=O)nc1SCc1ccc(F)cc1 [Lp-PLA2 inhibitor '495]
trough Lp-PLA2 inhibition (Lp-PLA2; 2 weeks study): 89.7% | trough Lp-PLA2 inhibition (Lp-PLA2; 4 week study): 93.2% | Evans blue (albumin) leakage in retinae [1]: reduced this leak to levels exhibited by the normo-glycaemic group | STZ-induced retinal thinning (neuroretinal thickness by OCT) ([2]; first study, 10 mg/kg/day i.p. from day 8, assessed at 10 and 18 days, p<0.05): partially but significantly inhibited | incidence of sub-retinal fluid accumulation by OCT ([2]; hyperglycaemic SD rats, 10 mg/kg/day, day 14): no animals to have overt retinal fluid accumulation | STZ-induced retinal thinning (neuroretinal thickness by OCT) ([2]; second study, 10 mg/kg/d i.p. from day 4, vs vehicle-treated diabetic rats, p<0.001): significant attenuation in the development of retinal thinning | albumin leakage from retinal vessels (immunohistochemistry) ([3]; 10 mg/kg QD i.p., 4 weeks, listed as SB435495, 10 mg/kg): less leakage and extensive co-localization of albumin with retinal blood vessels | albumin leakage from retinal vessels (immunohistochemistry) ([3]; 20 mg/kg QD i.p., 2 weeks, 20 mg/kg): albumin is contained intravascularly and co-localised with retinal vessels | albumin leakage from retinal vessels (immunohistochemistry) ([3]; 20 mg/kg QD i.p., 2 weeks, listed as SB435495, 20 mg/kg): less leakage and extensive co-localization of albumin with retinal blood vessels
